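Each compound was tested at five concentrations against cells in 96-well plates for 48 hours. At the GI50, growth is halved. At the TGI there is no net growth.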
What was measured:
Assay in all cases: inhibition of tumour cell growth, NCI panel, 48 h
786-0 renal = tested on: 786-0 renal
A498 renal = tested on: A498 renal
A549 NSCLC = tested on: A549 NSCLC
ACHN renal = tested on: ACHN renal
BT-549 breast = tested on: BT-549 breast
CAKI-1 renal = tested on: CAKI-1 renal
CCRF-CEM leukemia = tested on: CCRF-CEM leukemia
COLO 205 colon = tested on: COLO 205 colon
DU-145 prostate = tested on: DU-145 prostate
EKVX NSCLC = tested on: EKVX NSCLC
HCC-2998 colon = tested on: HCC-2998 colon
HCT-116 colon = tested on: HCT-116 colon
HCT-15 colon = tested on: HCT-15 colon
HL-60(TB) leukemia = tested on: HL-60(TB) leukemia
HOP-62 NSCLC = tested on: HOP-62 NSCLC
HS 578T breast = tested on: HS 578T breast
HT29 colon = tested on: HT29 colon
IGROV1 ovarian = tested on: IGROV1 ovarian
K-562 leukemia = tested on: K-562 leukemia
KM12 colon = tested on: KM12 colon
LOX IMVI melanoma = tested on: LOX IMVI melanoma
M14 melanoma = tested on: M14 melanoma
MALME-3M melanoma = tested on: MALME-3M melanoma
MCF7 breast = tested on: MCF7 breast
MDA-MB-231 breast = tested on: MDA-MB-231 breast
MDA-MB-435 = tested on: MDA-MB-435
MOLT-4 leukemia = tested on: MOLT-4 leukemia
NCI-H226 lung = tested on: NCI-H226 lung
NCI-H23 lung = tested on: NCI-H23 lung
NCI-H460 lung = tested on: NCI-H460 lung
NCI-H522 lung = tested on: NCI-H522 lung
NCI/ADR-RES ovarian = tested on: NCI/ADR-RES ovarian
OVCAR-4 ovarian = tested on: OVCAR-4 ovarian
OVCAR-5 ovarian = tested on: OVCAR-5 ovarian
OVCAR-8 ovarian = tested on: OVCAR-8 ovarian
PC-3 prostate = tested on: PC-3 prostate
RPMI-8226 leukemia = tested on: RPMI-8226 leukemia
RXF 393 renal = tested on: RXF 393 renal
SF-268 CNS = tested on: SF-268 CNS
SF-295 CNS = tested on: SF-295 CNS
SF-539 CNS = tested on: SF-539 CNS
SK-MEL-2 melanoma = tested on: SK-MEL-2 melanoma
SK-MEL-28 melanoma = tested on: SK-MEL-28 melanoma
SK-MEL-5 melanoma = tested on: SK-MEL-5 melanoma
SK-OV-3 ovarian = tested on: SK-OV-3 ovarian
SN12C renal = tested on: SN12C renal
SNB-19 CNS = tested on: SNB-19 CNS
SNB-75 CNS = tested on: SNB-75 CNS
SR leukemia = tested on: SR leukemia
SW-620 colon = tested on: SW-620 colon
T-47D breast = tested on: T-47D breast
TK-10 renal = tested on: TK-10 renal
U251 CNS = tested on: U251 CNS
UACC-257 melanoma = tested on: UACC-257 melanoma
UACC-62 melanoma = tested on: UACC-62 melanoma
UO-31 renal = tested on: UO-31 renal

Structure (SMILES): Nc1ncc(-c2ccc3ncnc(N4CCc5cc(F)c(F)cc54)c3c2)cn1
- GI50 (786-0 renal): 3.42 µM
- TGI (786-0 renal): > 100 µM
- GI50 (A498 renal): 0.251 µM
- TGI (A498 renal): 2.13 µM
- GI50 (A549 NSCLC): 2.35 µM
- TGI (A549 NSCLC): > 100 µM
- GI50 (ACHN renal): 1.73 µM
- TGI (ACHN renal): > 100 µM
- GI50 (BT-549 breast): 1.86 µM
- TGI (BT-549 breast): > 100 µM
- GI50 (CAKI-1 renal): 0.89 µM
- TGI (CAKI-1 renal): > 100 µM
- GI50 (CCRF-CEM leukemia): 2.38 µM
- TGI (CCRF-CEM leukemia): > 100 µM
- GI50 (COLO 205 colon): 5.77 µM
- TGI (COLO 205 colon): > 100 µM
- GI50 (DU-145 prostate): 2.38 µM
- TGI (DU-145 prostate): > 100 µM
- GI50 (EKVX NSCLC): 1.7 µM
- TGI (EKVX NSCLC): > 100 µM
- GI50 (HCC-2998 colon): 3.08 µM
- TGI (HCC-2998 colon): > 100 µM
- GI50 (HCT-116 colon): 4.51 µM
- TGI (HCT-116 colon): > 100 µM
- GI50 (HCT-15 colon): 2.28 µM
- TGI (HCT-15 colon): > 100 µM
- GI50 (HL-60(TB) leukemia): 5.52 µM
- TGI (HL-60(TB) leukemia): > 100 µM
- GI50 (HOP-62 NSCLC): 1.36 µM
- TGI (HOP-62 NSCLC): > 100 µM
- GI50 (HS 578T breast): 0.751 µM
- TGI (HS 578T breast): 4.66 µM
- GI50 (HT29 colon): 2.9 µM
- TGI (HT29 colon): > 100 µM
- GI50 (IGROV1 ovarian): 0.459 µM
- TGI (IGROV1 ovarian): 3.34 µM
- GI50 (K-562 leukemia): > 100 µM
- TGI (K-562 leukemia): > 100 µM
- GI50 (KM12 colon): 3.92 µM
- TGI (KM12 colon): > 100 µM
- GI50 (LOX IMVI melanoma): 1.77 µM
- TGI (LOX IMVI melanoma): 14.1 µM
- GI50 (M14 melanoma): 3.53 µM
- TGI (M14 melanoma): > 100 µM
- GI50 (MALME-3M melanoma): 1.08 µM
- TGI (MALME-3M melanoma): > 100 µM
- GI50 (MCF7 breast): 1.23 µM
- TGI (MCF7 breast): > 100 µM
- GI50 (MDA-MB-231 breast): 1.87 µM
- TGI (MDA-MB-231 breast): > 100 µM
- GI50 (MDA-MB-435): 2.73 µM
- TGI (MDA-MB-435): > 100 µM
- GI50 (MOLT-4 leukemia): 3.32 µM
- TGI (MOLT-4 leukemia): > 100 µM
- GI50 (NCI-H226 lung): 3 µM
- TGI (NCI-H226 lung): > 100 µM
- GI50 (NCI-H23 lung): 4.76 µM
- TGI (NCI-H23 lung): > 100 µM
- GI50 (NCI-H460 lung): 2.11 µM
- TGI (NCI-H460 lung): > 100 µM
- GI50 (NCI-H522 lung): 4.94 µM
- TGI (NCI-H522 lung): > 100 µM
- GI50 (NCI/ADR-RES ovarian): 3.91 µM
- TGI (NCI/ADR-RES ovarian): > 100 µM
- GI50 (OVCAR-4 ovarian): 1.76 µM
- TGI (OVCAR-4 ovarian): > 100 µM
- GI50 (OVCAR-5 ovarian): 1.53 µM
- TGI (OVCAR-5 ovarian): > 100 µM
- GI50 (OVCAR-8 ovarian): 3.06 µM
- TGI (OVCAR-8 ovarian): > 100 µM
- GI50 (PC-3 prostate): 1.44 µM
- TGI (PC-3 prostate): > 100 µM
- GI50 (RPMI-8226 leukemia): 0.559 µM
- TGI (RPMI-8226 leukemia): > 100 µM
- GI50 (RXF 393 renal): 0.381 µM
- TGI (RXF 393 renal): 3.15 µM
- GI50 (SF-268 CNS): 1.8 µM
- TGI (SF-268 CNS): > 100 µM
- GI50 (SF-295 CNS): 2.3 µM
- TGI (SF-295 CNS): > 100 µM
- GI50 (SF-539 CNS): 2.49 µM
- TGI (SF-539 CNS): > 100 µM
- GI50 (SK-MEL-2 melanoma): 2.44 µM
- TGI (SK-MEL-2 melanoma): 12.3 µM
- GI50 (SK-MEL-28 melanoma): 3.26 µM
- TGI (SK-MEL-28 melanoma): > 100 µM
- GI50 (SK-MEL-5 melanoma): 6.1 µM
- TGI (SK-MEL-5 melanoma): > 100 µM
- GI50 (SK-OV-3 ovarian): 1.66 µM
- TGI (SK-OV-3 ovarian): > 100 µM
- GI50 (SN12C renal): 2.11 µM
- TGI (SN12C renal): > 100 µM
- GI50 (SNB-19 CNS): 5.35 µM
- TGI (SNB-19 CNS): > 100 µM
- GI50 (SNB-75 CNS): 0.455 µM
- TGI (SNB-75 CNS): 4.03 µM
- GI50 (SR leukemia): 1.82 µM
- TGI (SR leukemia): > 100 µM
- GI50 (SW-620 colon): 6.86 µM
- TGI (SW-620 colon): > 100 µM
- GI50 (T-47D breast): 0.858 µM
- TGI (T-47D breast): > 100 µM
- GI50 (TK-10 renal): 0.709 µM
- TGI (TK-10 renal): > 100 µM
- GI50 (U251 CNS): 4.81 µM
- TGI (U251 CNS): > 100 µM
- GI50 (UACC-257 melanoma): 7.3 µM
- TGI (UACC-257 melanoma): > 100 µM
- GI50 (UACC-62 melanoma): 1.37 µM
- TGI (UACC-62 melanoma): > 100 µM
- GI50 (UO-31 renal): 0.396 µM
- TGI (UO-31 renal): > 100 µM

Source: PubChem BioAssay (NCI)
